Results on 27 compounds are retold here after patent publication US11685732B2, “MYST family histone acetyltransferase inhibitors” (Epizyme, Inc., priority 2017, dated 2023).

The structures appear in SMILES notation.

For assay [1], the target named is KAT-5 (Homo sapiens (Human), UniProt Q92993). The assay is described as follows: KAT-5 biochemical inhibition assay (SAMDI mass spectrometry). A digest of the protocol:
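KAT-5 at 9 nM final was preincubated with serially diluted compound (2% DMSO) in 50 mM Tris pH 8.0 with 1 mM DTT. Reaction ran with 1 μM peptide substrate and 0.5 μM acetyl-CoA for 90 min at 25° C, was quenched with 0.5% formic acid, and was read by SAMDI-TOF mass spectrometry.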

The target in assay [2] is KAT-6A (Homo sapiens (Human), UniProt Q92794). Description: KAT-6A biochemical inhibition assay (SAMDI mass spectrometry). In short, it runs like this: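 Enzyme (12.5 nM final) pre-incubated with serially diluted compounds (2% DMSO final) in 50 mM Tris pH 8.0 with Tween20, gelatin and 1 mM DTT. Reaction started with 1 μM peptide substrate and 1 μM acetyl-CoA, run 90 min at 25 °C, quenched with 0.5% formic acid, read by SAMDI-TOF mass spectrometry; IC50 derived.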
Sequence of KAT-6A (Q92794 other isoform, or with tags, fused parts or gaps): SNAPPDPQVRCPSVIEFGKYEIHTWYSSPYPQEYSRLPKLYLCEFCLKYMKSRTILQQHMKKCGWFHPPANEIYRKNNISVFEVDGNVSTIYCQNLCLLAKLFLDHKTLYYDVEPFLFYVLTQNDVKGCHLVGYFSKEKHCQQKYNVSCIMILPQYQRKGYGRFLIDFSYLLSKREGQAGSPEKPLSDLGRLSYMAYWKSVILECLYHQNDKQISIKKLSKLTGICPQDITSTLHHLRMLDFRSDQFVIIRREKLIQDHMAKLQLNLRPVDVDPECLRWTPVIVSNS

Assay [3] addresses KAT-8 (Homo sapiens (Human), UniProt Q9H7Z6). The assay is described as follows: KAT-8 biochemical inhibition assay (SAMDI mass spectrometry). In short, it runs like this:
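Compounds in 2% DMSO pre-incubated with 12.5 nM enzyme in 50 mM Tris pH 8.0 with Tween20, gelatin and 1 mM DTT. Then 1 μM peptide and 5 μM acetyl-CoA were added, 90 min at 25 °C; formic acid stop and SAMDI-TOF mass spectrometry for IC50.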

The target of assay [4] is KAT-7 (Homo sapiens (Human), UniProt O95251). Description: KAT-7 biochemical inhibition assay (SAMDI mass spectrometry). In short, it runs like this:
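KAT-7 (6 nM) was pre-incubated with serially diluted compound (2% DMSO) in Tris pH 8.0 with DTT. Reaction with 1 μM peptide and 2 μM acetyl-CoA ran 120 min at 25 °C and was stopped with 0.5% formic acid. Acetylation was read by SAMDI-TOF mass spectrometry to give IC50.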

Sequence of KAT-5 (Q92993 other isoform, or with tags, fused parts or gaps): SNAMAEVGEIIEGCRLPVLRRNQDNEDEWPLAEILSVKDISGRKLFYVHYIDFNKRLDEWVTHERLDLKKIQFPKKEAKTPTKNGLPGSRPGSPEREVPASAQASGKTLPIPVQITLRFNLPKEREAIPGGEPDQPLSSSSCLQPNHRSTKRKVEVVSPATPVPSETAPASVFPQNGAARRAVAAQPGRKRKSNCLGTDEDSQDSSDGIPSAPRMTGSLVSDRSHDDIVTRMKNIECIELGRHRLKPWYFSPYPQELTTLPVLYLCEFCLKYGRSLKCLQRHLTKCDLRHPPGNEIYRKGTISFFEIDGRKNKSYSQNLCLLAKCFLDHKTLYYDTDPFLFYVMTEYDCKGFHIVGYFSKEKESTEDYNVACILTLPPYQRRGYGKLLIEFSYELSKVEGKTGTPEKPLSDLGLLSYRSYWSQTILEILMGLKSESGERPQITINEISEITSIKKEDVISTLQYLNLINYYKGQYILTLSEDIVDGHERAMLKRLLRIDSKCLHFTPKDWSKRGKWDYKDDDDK
Sequence of KAT-8 (Q9H7Z6 other isoform, or with tags, fused parts or gaps): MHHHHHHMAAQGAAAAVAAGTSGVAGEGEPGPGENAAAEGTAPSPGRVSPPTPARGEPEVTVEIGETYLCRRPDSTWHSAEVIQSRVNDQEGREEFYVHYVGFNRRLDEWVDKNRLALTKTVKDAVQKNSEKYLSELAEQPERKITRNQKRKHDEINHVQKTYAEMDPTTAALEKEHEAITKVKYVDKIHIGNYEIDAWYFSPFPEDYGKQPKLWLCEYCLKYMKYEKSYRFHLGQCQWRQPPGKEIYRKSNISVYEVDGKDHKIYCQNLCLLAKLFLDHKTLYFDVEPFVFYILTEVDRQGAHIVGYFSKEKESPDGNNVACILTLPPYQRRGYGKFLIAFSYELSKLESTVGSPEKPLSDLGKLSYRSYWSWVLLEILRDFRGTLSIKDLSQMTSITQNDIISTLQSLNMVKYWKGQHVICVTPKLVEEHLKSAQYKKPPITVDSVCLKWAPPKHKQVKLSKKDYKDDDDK
Sequence of KAT-7 (O95251 other isoform, or with tags, fused parts or gaps): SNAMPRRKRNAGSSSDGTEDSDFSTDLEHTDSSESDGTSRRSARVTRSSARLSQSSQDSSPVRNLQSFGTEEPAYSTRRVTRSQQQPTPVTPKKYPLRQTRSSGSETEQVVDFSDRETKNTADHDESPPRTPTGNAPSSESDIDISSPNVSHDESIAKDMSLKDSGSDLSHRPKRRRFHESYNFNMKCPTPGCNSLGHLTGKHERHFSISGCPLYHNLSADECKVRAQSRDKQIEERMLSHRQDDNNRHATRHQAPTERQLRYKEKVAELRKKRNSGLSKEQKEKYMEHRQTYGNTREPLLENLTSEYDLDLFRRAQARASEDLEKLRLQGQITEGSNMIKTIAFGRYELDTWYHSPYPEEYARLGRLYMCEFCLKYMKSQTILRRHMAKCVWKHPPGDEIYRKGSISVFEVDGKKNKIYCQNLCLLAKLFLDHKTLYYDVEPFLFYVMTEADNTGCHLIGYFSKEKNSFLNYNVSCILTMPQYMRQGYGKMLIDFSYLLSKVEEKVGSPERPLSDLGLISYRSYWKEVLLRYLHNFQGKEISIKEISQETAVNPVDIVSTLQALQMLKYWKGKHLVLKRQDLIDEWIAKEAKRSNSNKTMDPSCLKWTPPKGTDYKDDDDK

`Cn1cnc(-c2cc(Cl)c(F)c(C(=O)NNS(=O)(=O)c3cccc(F)c3)c2)c1` [Compound I-320]: the IC50 (commonly the concentration at which inhibition is half-maximal) is below 10 µM in assay [1], below 10 µM in assay [2], 10 to 50 µM in assay [3] and below 10 µM in assay [4].
Regarding `COc1ccccc1S(=O)(=O)NNC(=O)c1cc(-c2cn(C)cn2)cc(Cl)c1F` [Compound I-321], the IC50 in assay [1] is below 10 µM; in assay [2], below 10 µM; in assay [3] it was 10 to 50 µM; in assay [4], below 10 µM.
With `COc1cccc(S(=O)(=O)NNC(=O)c2cc(-c3cn(C)cn3)cc(Cl)c2F)c1` [Compound I-322], the IC50 in assay [1] was below 10 µM; in assay [2], below 10 µM; in assay [3] it was 10 to 50 µM; in assay [4] it was below 10 µM.
In the case of `Cn1cnc(-c2cc(Cl)c(F)c(C(=O)NNS(=O)(=O)c3ccc(Cl)cc3)c2)c1` [Compound I-323], the IC50 in assay [1] is below 10 µM; in assay [2], below 10 µM; in assay [3] it was 10 to 50 µM; in assay [4] it was below 10 µM.
As to `Cn1cnc(-c2cc(Cl)c(F)c(C(=O)NNS(=O)(=O)c3cccc(Cl)c3)c2)c1` [Compound I-324], the half-maximal inhibitory concentration (IC50) in assay [1] was below 10 µM; in assay [2], below 10 µM; in assay [3] it was 10 to 50 µM; in assay [4] it was below 10 µM.
Regarding `CN1CCN([C@H]2C[C@@H](CS(=O)(=O)NNC(=O)c3cc(-c4cn(C)cn4)cc(Cl)c3F)C2)C1=O` [Compound I-325], the IC50 in assay [1] is below 10 µM; in assay [2] it was below 10 µM; in assay [3], 10 to 50 µM; in assay [4], below 10 µM.
Consider `CCC(=O)N(C)C1CCC(CS(=O)(=O)NNC(=O)c2cc(-c3cn(C)cn3)cc(Cl)c2F)CC1` (stereo not drawn) [Compound I-326], for which the IC50 in assay [1] was below 10 µM; in assay [2], below 10 µM; in assay [3], 10 to 50 µM; in assay [4], below 10 µM.
With `COc1ccc(CNC(=O)NC2CCC(CS(=O)(=O)NNC(=O)c3cc(-c4cn(C)cn4)cc(Cl)c3F)C2)cc1` (stereo not drawn) [Compound I-327], the IC50 was below 10 µM in assay [1], below 10 µM in assay [2], 10 to 50 µM in assay [3] and below 10 µM in assay [4].
For the compound `Cn1cnc(-c2cc(Cl)c(F)c(C(=O)NNS(=O)(=O)CC(=O)N3CCCC3)c2)c1` [Compound I-328], the IC50 in assay [1] is 10 to 50 µM; in assay [2] it was 10 to 50 µM; in assay [3], 10 to 50 µM; in assay [4], below 10 µM.
Regarding `CO[C@H]1CC[C@H](CS(=O)(=O)NNC(=O)c2cc(-c3cn(C)cn3)cc(Cl)c2F)CC1` [Compound I-329], the half-maximal inhibitory concentration (IC50) is below 10 µM in assay [1], below 10 µM in assay [2], 10 to 50 µM in assay [3] and below 10 µM in assay [4].
As for `Cn1cnc(-c2cc(Cl)c(F)c(C(=O)NNS(=O)(=O)c3ccccn3)c2)c1` [Compound I-330], the IC50 in assay [1] was below 10 µM; in assay [2] it was below 10 µM; in assay [3] it was 10 to 50 µM; in assay [4] it was below 10 µM.
On to `Cn1cnc(-c2cc(Cl)c(F)c(C(=O)NNS(=O)(=O)C[C@H]3CC[C@@H](N(C)C(=O)OC(C)(C)C)CC3)c2)c1` [Compound I-331], for which the IC50 in assay [1] was below 10 µM; in assay [2] it was 10 to 50 µM; in assay [3] it was 10 to 50 µM; in assay [4], below 10 µM.
Consider `Cn1cnc(-c2cc(Cl)c(F)c(C(=O)NNS(=O)(=O)C[C@H]3CC[C@H](N(C)C(=O)OC(C)(C)C)CC3)c2)c1` [Compound I-332], for which the IC50 in assay [1] was below 10 µM; in assay [2], below 10 µM; in assay [3], 10 to 50 µM; in assay [4] it was below 10 µM.
As to `Cn1cnc(-c2cc(Cl)c(F)c(C(=O)NNS(=O)(=O)C[C@@H]3CCC[C@@H](NC(=O)OC(C)(C)C)C3)c2)c1` [Compound I-333], the IC50 in assay [1] was below 10 µM; in assay [2], below 10 µM; in assay [3], 10 to 50 µM; in assay [4] it was below 10 µM.
On to `Cn1cnc(-c2cc(Cl)c(F)c(C(=O)NNS(=O)(=O)CC34CCC(CC3)CC4)c2)c1` [Compound I-334], for which the IC50 in assay [1] was below 10 µM; in assay [2], below 10 µM; in assay [3], 10 to 50 µM; in assay [4], below 10 µM.
Regarding `CC1CCCCC1CS(=O)(=O)NNC(=O)c1cc(-c2cn(C)cn2)cc(Cl)c1F` (stereo not drawn) [Compound I-335], the IC50 was below 10 µM in assay [1], below 10 µM in assay [2], 10 to 50 µM in assay [3] and below 10 µM in assay [4].
Turning to `CN(C)C(=O)NC1CCC(CS(=O)(=O)NNC(=O)c2cc(-c3cn(C)cn3)cc(Cl)c2F)C1` (stereo not drawn) [Compound I-336], the IC50 in assay [1] was below 10 µM; in assay [2], below 10 µM; in assay [3], 10 to 50 µM; in assay [4], below 10 µM.
Regarding `CN[C@H]1CC[C@H](CS(=O)(=O)NNC(=O)c2cc(-c3cn(C)cn3)cc(Cl)c2F)CC1` [Compound I-337], the IC50 in assay [1] is 10 to 50 µM; in assay [2], 10 to 50 µM; in assay [3] it was 10 to 50 µM; in assay [4], below 10 µM.
For `CCNC(=O)N(C)[C@H]1CC[C@H](CS(=O)(=O)NNC(=O)c2cc(-c3cn(C)cn3)cc(Cl)c2F)CC1` [Compound I-338], the IC50 is below 10 µM in assay [1], below 10 µM in assay [2], 10 to 50 µM in assay [3] and below 10 µM in assay [4].
As for `Cn1cnc(-c2cc(Cl)c(F)c(C(=O)NNS(=O)(=O)CC3CCC(N)C3)c2)c1` (stereo not drawn) [Compound I-339], the IC50 in assay [1] is 10 to 50 µM; in assay [2], 10 to 50 µM; in assay [3], 10 to 50 µM; in assay [4], below 10 µM.
As to `Cn1cnc(-c2cc(Cl)c(F)c(C(=O)NNS(=O)(=O)CC3CCC(NC(N)=O)C3)c2)c1` (stereo not drawn) [Compound I-340], the IC50 in assay [1] was below 10 µM; in assay [2], below 10 µM; in assay [3], 10 to 50 µM; in assay [4], below 10 µM.
With `Cn1cnc(-c2cc(Cl)c(F)c(C(=O)NNS(=O)(=O)CC3CCC(NC(=O)N4CCC4)C3)c2)c1` (stereo not drawn) [Compound I-341], the IC50 in assay [1] was below 10 µM; in assay [2] it was below 10 µM; in assay [3], 10 to 50 µM; in assay [4] it was below 10 µM.
Regarding `Cn1cnc(-c2cc(Cl)c(F)c(C(=O)NNS(=O)(=O)CC3CCCC(F)(F)C3)c2)c1` (stereo not drawn) [Compound I-342], the IC50 in assay [1] is below 10 µM; in assay [2], below 10 µM; in assay [3], 10 to 50 µM; in assay [4] it was below 10 µM.
Regarding `CN(C(=O)OC(C)(C)C)c1cccc(S(=O)(=O)NNC(=O)c2cc(-c3cn(C)cn3)cc(Cl)c2F)c1` [Compound I-343], the IC50 in assay [1] is below 10 µM; in assay [2], below 10 µM; in assay [3], 10 to 50 µM; in assay [4], below 10 µM.
With `Cn1cnc(-c2cc(Cl)c(F)c(C(=O)NNS(=O)(=O)CC3CCC(NC(=O)N4CCCCC4)C3)c2)c1` (stereo not drawn) [Compound I-345], the IC50 in assay [1] was below 10 µM; in assay [2] it was below 10 µM; in assay [3], 10 to 50 µM; in assay [4], below 10 µM.
In the case of `Cn1cnc(-c2cc(Cl)c(F)c(C(=O)NNS(=O)(=O)CC3CCC(NC(=O)N4CCCC4)C3)c2)c1` (stereo not drawn) [Compound I-346], the IC50 in assay [1] is below 10 µM; in assay [2], below 10 µM; in assay [3], 10 to 50 µM; in assay [4], below 10 µM.
With `CCOC1CCC(CS(=O)(=O)NNC(=O)c2cc(-c3cn(C)cn3)cc(Cl)c2F)CC1` (stereo not drawn) [Compound I-347], the IC50 is below 10 µM in assay [1], below 10 µM in assay [2], 10 to 50 µM in assay [3] and below 10 µM in assay [4].
